Laboratory results from patent publication US11655231B2, “Etoricoxib solvates and preparation method thereof” (Tianjin University, priority 2020, dated 2023).
≈ marks a conversion by molar mass, not a printed value. Like-named read-outs stand apart in the source and are kept apart here.

Key:
[1] = Crystal size and size distribution; format: physicochemical
Experimental: (§1) The 1,2-propanediol and DMSO solvates of etoricoxib obtained in the present disclosure are rod-like and bulk crystals, respectively, as shown in FIG. 10 and FIG. 11. The etoricoxib crystal form V in the prior art has a volume-average size of 16 μm and a repose angle of 44°; and the etoricoxib hemihydrate has a volume-average size of 19 μm and a repose angle of 48°. […] Therefore, the 1,2-propanediol and DMSO solvates of etoricoxib obtained in the present disclosure are perfect crystals with smooth surfaces, which are not easy to agglomerate and have prominent flowability.

[2] = Solubility in aqueous solution; format: physicochemical; conditions: 25° C. aqueous solution
From the text: Therefore, the 1,2-propanediol and DMSO solvates of etoricoxib obtained in the present disclosure both effectively improve the solubility of etoricoxib in an aqueous solution.

[3] = Thermal and moisture stability on storage at room/ambient temperature; format: physicochemical; conditions: for moisture stability (in words): ambient temperature, transformation into a hydrate; for thermal stability (in words): stored at room temperature
Experimental: The 1,2-propanediol and DMSO solvates of etoricoxib obtained in the present disclosure have a relatively high desolvation temperature. The 1,2-propanediol and the DMSO have boiling points of […] and 189° C., respectively. […] Moreover, the host-guest intermolecular interaction energies in the crystal structure of etoricoxib 1,2-propanediol and DMSO solvates are −37.22 kJ/mol and −43.37 kJ/mol respectively, which are much higher than that (−30.53 kJ/mol) in hemihydrate crystal structure. It is difficult for water molecules to enter a unit cell of the 1,2-propanediol and DMSO solvates to replace the 1,2-propanediol and DMSO molecules at an ambient temperature. […] As a result, the 1,2-propanediol and DMSO solvates of etoricoxib obtained in the present disclosure both have prominent thermal stability and moisture stability.

[4] = Onset temperature of desolvation in TG test (thermogravimetric analysis); format: physicochemical; conditions: TGA, heating rate 10° C./min, 25° C. to 250° C., nitrogen
[5] = prior-art hydrates, cited from earlier work
[6] = Repose angle (particle flowability); format: physicochemical
Experimental: as §1

[7] = listed as DMSO solvate of etoricoxib
[8] = listed as 1,2-propanediol solvate of etoricoxib
[9] = listed as etoricoxib hemihydrate

Cc1ccc(-c2ncc(Cl)cc2-c2ccc(S(C)(=O)=O)cc2)cn1 [DMSO solvate]
volume-average size [1]: 120 μm | variation coefficient of size distribution [1, 7]: 19.7% | solubility in aqueous solution [2, 7]: 1465 µg/mL | moisture stability (in words) [3]: prominent moisture stability | thermal stability (in words) [3]: excellent thermal stability | Onset temperature of desolvation in TG test [4]: 66 ± 1 °C | Onset temperature of desolvation in TG test [4, 7]: 66 °C

Cc1ccc(-c2ncc(Cl)cc2-c2ccc(S(C)(=O)=O)cc2)cn1 [Sesquihydrate, 5-chloro-6′-methyl-3-[4-(methylsulfonyl)phenyl]-2,3′-bipyridine]
onset temperature of dehydration ([5]; listed as sesquihydrate): lower than 23 °C

Cc1ccc(-c2ncc(Cl)cc2-c2ccc(S(C)(=O)=O)cc2)cn1 [Methanol solvate]
Onset temperature of desolvation in TG test [4]: 27 ± 1 °C | Onset temperature of desolvation in TG test ([4]; listed as methanol solvate of etoricoxib): 27 °C

Cc1ccc(-c2ncc(Cl)cc2-c2ccc(S(C)(=O)=O)cc2)cn1 [NMP solvate]
Onset temperature of desolvation in TG test [4]: 79 ± 1 °C | Onset temperature of desolvation in TG test ([4]; listed as NMP solvate of etoricoxib): 79 °C

Cc1ccc(-c2ncc(Cl)cc2-c2ccc(S(C)(=O)=O)cc2)cn1 [etoricoxib crystal form V, 5-chloro-6′-methyl-3-[4-(methylsulfonyl)phenyl]-2,3′-bipyridine, reference compound]
variation coefficient of size distribution [1]: 57.2% | volume-average size [1]: 16 μm | solubility in aqueous solution [2]: 307.9 µg/mL (≈ 858 µM) | repose angle [6]: 44 °

Cc1ccc(-c2ncc(Cl)cc2-c2ccc(S(C)(=O)=O)cc2)cn1 [EG solvate]
Onset temperature of desolvation in TG test [4]: 96 ± 1 °C | Onset temperature of desolvation in TG test ([4]; listed as EG solvate of etoricoxib): 96 °C

Cc1ccc(-c2ncc(Cl)cc2-c2ccc(S(C)(=O)=O)cc2)cn1 [1,2-propanediol solvate]
primary crystal size [1]: 100 μm | variation coefficient of size distribution [1, 8]: 23.6% | solubility in aqueous solution [2, 8]: 527 µg/mL | moisture stability (in words) [3]: prominent moisture stability | thermal stability (in words) [3]: excellent thermal stability | Onset temperature of desolvation in TG test [4]: 94 ± 1 °C | Onset temperature of desolvation in TG test [4, 8]: 94 °C

Cc1ccc(-c2ncc(Cl)cc2-c2ccc(S(C)(=O)=O)cc2)cn1 [Hemihydrate, 5-chloro-6′-methyl-3-[4-(methylsulfonyl)phenyl]-2,3′-bipyridine]
variation coefficient of size distribution [1]: 53.6% | volume-average size [1, 9]: 19 μm | repose angle [6, 9]: 48 ° | onset temperature of dehydration ([5]; listed as hemihydrate): lower than 56 °C

Cc1ccc(-c2ncc(Cl)cc2-c2ccc(S(C)(=O)=O)cc2)cn1 [Formamide solvate]
Onset temperature of desolvation in TG test ([4]; listed as formamide solvate of etoricoxib): 90 °C
